Values of other authors, collected in patent US20080318886A1, “Methods of Increasing Cancer Sensitivity to Chemotherapeutic Agents Using Chimeric ISF35” (priority 2006, published 2008).

System: CLL
Conditions: CLL patients, first line treatment

Nc1nc(F)nc2c1ncn2[C@@H]1O[C@H](CO)[C@@H](O)[C@@H]1O [Fludaribine]
overall response rate: ~70%
